Assay results taken from patent US20150148256A1, “BIOLUMINESCENCE IMAGING-BASED SCREENING ASSAY AND INHIBITORS OF ABCG2” (THE JOHNS HOPKINS UNIVERSITY, priority 2008, published 2015).
Structures can show the parent of a compound that is named as a salt. Residues, ends and D or L forms follow the SMILES beside them.

Molecular target: T1, ABCG2 (Homo sapiens, UniProt Q9UNQ0)
T1 sequence (Q9UNQ0 1-655): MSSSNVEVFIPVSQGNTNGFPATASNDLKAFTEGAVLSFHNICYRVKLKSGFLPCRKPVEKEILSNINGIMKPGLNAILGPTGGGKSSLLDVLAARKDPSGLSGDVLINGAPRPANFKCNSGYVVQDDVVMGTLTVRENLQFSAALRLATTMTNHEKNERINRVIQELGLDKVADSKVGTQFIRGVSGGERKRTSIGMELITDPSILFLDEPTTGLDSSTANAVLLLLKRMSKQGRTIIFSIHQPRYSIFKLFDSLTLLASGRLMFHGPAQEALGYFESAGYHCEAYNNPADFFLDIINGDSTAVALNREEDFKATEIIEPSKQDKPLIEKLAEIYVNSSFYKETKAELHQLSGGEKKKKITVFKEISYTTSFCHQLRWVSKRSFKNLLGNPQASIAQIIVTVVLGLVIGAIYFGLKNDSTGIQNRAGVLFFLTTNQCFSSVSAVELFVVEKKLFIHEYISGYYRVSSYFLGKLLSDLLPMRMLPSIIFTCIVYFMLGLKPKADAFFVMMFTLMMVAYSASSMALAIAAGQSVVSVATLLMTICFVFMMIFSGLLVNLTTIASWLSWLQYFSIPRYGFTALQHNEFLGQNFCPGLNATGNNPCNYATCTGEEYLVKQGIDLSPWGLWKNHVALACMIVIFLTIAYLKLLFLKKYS
Experiment: Bioluminescence imaging (BLI) assay in HEK293/ABCG2/fLuc cells
Method: HEK293/ABCG2/fLuc cells were plated into 96-well plates at a density of 4×10^4 cells/100 μL per well and were allowed to attach overnight. The following day, 10 μL of each compound or the control solvent was transferred from a compound library in a 96-well, high-throughput format into the wells using a multichannel pipette. […] Images were taken every 5 minutes for ˜1 h. Light output from each well was quantified at the 40 min time point after initiation of imaging, and the signal-to-background (S/B) ratio of the light output from each compound divided by that from the control well was calculated. This S/B ratio serves as an indicator of the potency of ABCG2 inhibition, the mechanism by which BLI signal is enhanced.
Images were taken every 5 min for ˜1 h, and light output from each well at the 40 min time point was chosen for quantification. The SB ratio of the light output from each compound divided by that from the control well was calculated. This ratio was used as an indicator of the potency of ABCG2 inhibition, the mechanism by which BLI signal is enhanced.
The BLI signal-enhancing effect of selected ABCG2 inhibitors was evaluated within the range of 0.001 μM-100 μM, with HEK293/ABCG2/fLuc cells and 50 μg/mL D-luciferin. The data obtained at 40 min after imaging commencement were chosen arbitrarily to be plotted (FIG. 3).

[1] = Table 2, HEK293/ABCG2/fLuc cells, compound approximately 17 μM, ~50 μg/mL D-luciferin, 40 min time point

| SMILES | Fold (BLI enhancement, S/B ratio over control) (human, 40 min, 17 μM) [fold] | further results |
| --- | --- | --- |
| CCCn1c(=O)c2[nH]c(C3CCCC3)nc2n(CCC)c1=O [1,3-dipropyl-8-cyclopentylxanthine] | 4.3 | – |
| O=c1cc(-c2ccccc2)oc2cc(O)c(O)cc12 [6,7-dihydroxyflavone] | 2.7 | fold (BLI enhancement), additional previously known ABCG2 inhibitors (human, 40 min, 17 μM): 2.7 fold |
| Cn1c(=O)c2[nH]c(C3CCCC3)nc2n(C)c1=O [8-cyclopentyltheophylline] | 2.9 | – |
| C[C@]12CC[C@@H]3c4ccc(O)cc4CC[C@H]3[C@@H]1CC[C@@H]2O [13-estradiol] | – | Fold (BLI enhancement, S/B ratio over control) [1]: 4.2 fold |
| COc1ccc(-c2cc(=O)c3c(O)cc(O)cc3o2)cc1 [acacetin] | – | BLI signal enhancement (BLI screen, approximately 17 μM, 40 min): 1.8 fold; fold (BLI enhancement), additional previously known ABCG2 inhibitors (Table 5, approximately 17 μM, 40 min time point): 1.8 fold |
| CC[C@@]1(O)C[C@H](O[C@H]2C[C@H](N(C)C)[C@H](O[C@H]3C[C@H](O)[C@H](O[C@H]4CCC(=O)[C@H](C)O4)[C@H](C)O3)[C@H](C)O2)c2c(cc3c(c2O)C(=O)c2c(O)cccc2C3=O)[C@H]1C(=O)OC [aclarubicin] | – | Fold (BLI enhancement, S/B ratio over control) (human): 3.5 fold |
| CC[C@@]1(O)C[C@H](O[C@H]2C[C@H](N(C)C)[C@H](O)[C@H](C)O2)c2c(cc3c(c2O)C(=O)c2c(O)cccc2C3=O)[C@H]1C(=O)OC [aklavine hydrochloride] | – | Fold (BLI enhancement, S/B ratio over control) (human): 2.5 fold |
| CCCCC(CC)CNC(=N)NC(=N)NCCCCCCNC(=N)NC(=N)NCC(CC)CCCC (stereo not drawn) [alexidine hydrochloride] | 3.1 | – |
| Nc1c2ccccc2nc2ccccc12 [aminacrine] | 2.9 | – |
| CCN(CC)Cc1cc(Nc2ccnc3cc(Cl)ccc23)ccc1O [amodiaquin] | 3.8 | – |
| COc1ccc(CCN2CCC(Nc3nc4ccccc4n3Cc3ccc(F)cc3)CC2)cc1 [astemizole] | 2.8 | – |
| O=C1C(O)=C([C@H]2CC[C@H](c3ccc(Cl)cc3)CC2)C(=O)c2ccccc21 [atovaquone] | 3.5 | – |
| CN1CCCC(n2nc(Cc3ccc(Cl)cc3)c3ccccc3c2=O)CC1 (stereo not drawn) [azelastine hydrochloride] | 2.4 | – |
| CCC(=O)OCC(=O)[C@@]1(OC(=O)CC)[C@@H](C)C[C@H]2[C@@H]3CCC4=CC(=O)C=C[C@]4(C)[C@@]3(Cl)[C@@H](O)C[C@@]21C [beclomethasone dipropionate] | 3.2 | – |
| CN1[C@@H]2CC[C@H]1C[C@@H](OC(c1ccccc1)c1ccccc1)C2.CS(=O)(=O)O [benztropin Methane-] | – | Fold (BLI enhancement, S/B ratio over control) [1]: 2.0 fold |
| COc1ccc2cc3[n+](cc2c1OC)CCc1cc2c(cc1-3)OCO2.O=S(=O)([O-])O [berberine bisulfate] | – | Fold (BLI enhancement, S/B ratio over control) [1]: 2.2 fold |
| CCCCC(=O)O[C@]1(C(=O)CO)[C@@H](C)C[C@H]2[C@@H]3CCC4=CC(=O)C=C[C@]4(C)[C@@]3(F)[C@@H](O)C[C@@]21C [betamethasone valerate] | 2.6 | – |
| Brc1c(NC2=NCCN2)ccc2nccnc12 [brimonidine] | 3.4 | – |
| CC(C)C[C@H]1C(=O)N2CCC[C@H]2[C@]2(O)O[C@](NC(=O)[C@@H]3C=C4c5cccc6[nH]c(Br)c(c56)C[C@H]4N(C)C3)(C(C)C)C(=O)N12 [bromocriptine mesylate] | – | Fold (BLI enhancement, S/B ratio over control) (human): 2.1 fold |
| C=C1CC[C@H](O)C/C1=C/C=C1\CCC[C@]2(C)[C@@H]([C@H](C)CCCC(C)(C)O)CC[C@@H]12 [calcifediol] | 3.2 | – |

| SMILES | Fold (BLI enhancement, S/B ratio over control) (human, 40 min, 17 μM) [fold] | further results |
| --- | --- | --- |
| CNc1ccc2oc(C[C@H]3O[C@@]4(CC[C@H]3C)O[C@H]([C@H](C)C(=O)c3ccc[nH]3)[C@H](C)C[C@H]4C)nc2c1C(=O)O [calcimycin] | – | BLI signal enhancement at lower concentrations: enhance BLI signal minimally |
| COc1ccccc1OCCNCC(O)COc1cccc2[nH]c3ccccc3c12 (stereo not drawn) [carvedilol] | 10.0 | – |
| CC(C)(O/N=C(\C(=O)N[C@@H]1C(=O)N2C(C(=O)[O-])=C(C[n+]3ccccc3)CS[C@H]12)c1csc(N)n1)C(=O)O [ceftazidime] | 2.5 | – |
| Cc1ccc(-c2cc(C(F)(F)F)nn2-c2ccc(S(N)(=O)=O)cc2)cc1 [celecoxib] | 2.2 | – |
| COc1ccc2cc1Oc1ccc(cc1)C[C@H]1c3c(cc4c(c3Oc3cc5c(cc3OC)CCN(C)[C@@H]5C2)OCO4)CCN1C [cepharanthine] | 2.1 | – |
| Cc1cc(O)cc(C)c1Cl [chloroxylenol] | 2.4 | – |
| O=c1cc(-c2ccccc2)oc2cc(O)cc(O)c12 [chrysin] | 2.3 | fold (BLI enhancement), additional previously known ABCG2 inhibitors (human, 40 min, 17 μM): 2.3 fold |
| O=C1CCc2cc(OCCCCc3nnnn3C3CCCCC3)ccc2N1 [cilostazol] | 3.8 | – |
| C=CC1=C(C(=O)O)N2C(=O)[C@@H](NC(=O)/C(=N\OCC(=O)O)c3csc(N)n3)[C@H]2SC1 [citropen] | 4.3 | – |
| COc1cc(N)c(Cl)cc1C(=O)NC1CCN(Cc2ccccc2)CC1 [clebopride] | 6.7 | Fold (BLI enhancement), previously unknown compounds (human, 40 min, 17 μM): 6.7 fold |
| CCC(=O)O[C@]1(C(=O)CCl)[C@@H](C)C[C@H]2[C@@H]3CCC4=CC(=O)C=C[C@]4(C)[C@@]3(F)[C@@H](O)C[C@@]21C [clobetasol propionate] | 3.3 | – |
| COc1cc(/C=C/C(=O)CC(=O)/C=C/c2ccc(O)c(OC)c2)ccc1O [curcumin] | 6.3 | Fold (BLI enhancement), known compounds (human, 40 min, 17 μM): 6.3 fold |
| NC1(C(=O)NCC(=O)O)CCCC1 [cycloleucylglycine] (HELM PEPTIDE1{[NC1(C(=O)[*:2])CCCC1].G}$$$$V2.0) | 2.5 | – |
| CC(=O)[C@@]1(O)CC[C@H]2[C@@H]3C=C(Cl)C4=CC(=O)[C@@H]5C[C@@H]5[C@]4(C)[C@H]3CC[C@@]21C [cyproterone] | – | Fold (BLI enhancement, S/B ratio over control) [1]: 2.0 fold |
| CC(=O)OCC(=O)[C@@]1(O)[C@H](C)C[C@H]2[C@@H]3CCC4=CC(=O)C=C[C@]4(C)[C@@]3(F)[C@@H](O)C[C@@]21C [dexamethasone acetate] | 2.2 | – |
| N#CC(c1ccc(Cl)cc1)c1c(Cl)cc(-n2ncc(=O)[nH]c2=O)cc1Cl (stereo not drawn) [diclazuril] | 2.4 | – |
| CCCC(=O)O[C@]1(C(=O)COC(C)=O)CC[C@H]2[C@@H]3C[C@H](F)C4=CC(=O)C=C[C@]4(C)[C@@]3(F)[C@@H](O)C[C@@]21C [difluprednate] | 2.0 | – |
| CN1C[C@H](C(=O)N[C@]2(C)O[C@@]3(O)[C@@H]4CCCN4C(=O)[C@H](Cc4ccccc4)N3C2=O)C[C@@H]2c3cccc4[nH]cc(c34)C[C@H]21 [dihydroergotamine mesylate] | – | Fold (BLI enhancement), previously unknown compounds (human): 9.6 fold; Fold (BLI enhancement, S/B ratio over control) (human): 9.6 fold |
| O=C(Nc1ccccc1)OCC(CN1CCCCC1)OC(=O)Nc1ccccc1 (stereo not drawn) [diperodon hydrochloride] | 2.6 | – |
| OCCN(CCO)c1nc(N2CCCCC2)c2nc(N(CCO)CCO)nc(N3CCCCC3)c2n1 [dipyridamole] | 7.1 | Fold (BLI enhancement), known compounds (human, 40 min, 17 μM): 7.1 fold; fold (BLI enhancement), additional previously known ABCG2 inhibitors (human, 40 min, 17 μM): 7.1 fold |
